Legend:
Format in all cases: in vivo
[1] = test system: sedge, umbrella (small-flower umbrella sedge, Cyperus difformis); assay: Test B flooded paddy test; parameters: key: 0 = no effect, 100 = complete control; details: Flood, 250 g ai/ha applied to paddy water at 2-leaf stage; visually evaluated after 13 to 15 days; scale 0 (no effect) to 100 (complete control)
How it was run: (§1)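 Plants were grown to the 2-leaf stage, then pots were flooded to 3 cm above the soil and compound was applied directly into the paddy water, with that depth held throughout. After 13 to 15 days in a greenhouse, injury was rated visually against untreated controls on a 0 to 100 scale (100 = complete control).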

[2] = test system: rice (Oryza sativa); assay: Test B flooded paddy test; parameters: key: 0 = no effect, 100 = complete control; details: Flood, 250 g ai/ha applied to paddy water at 2-leaf stage; visually evaluated after 13 to 15 days; scale 0 (no effect) to 100 (complete control)
How it was run: as §1

[3] = test system: lambsquarters (Chenopodium album); assay: Test C postemergence; details: scale 0 to 100, 0 is no effect, 100 is complete control
Description: (§2) Seeds of plant species selected from blackgrass (Alopecurus myosuroides), Italian ryegrass (Lolium multiflorum), winter wheat (Triticum aestivum), galium (catchweed bedstraw, Galium aparine), corn (Zea mays), large (Lg) crabgrass (Digitaria sanguinalis), giant foxtail (Setaria faberii), johnsongrass (Sorghum halepense), lambsquarters (Chenopodium album), morningglory (Ipomoea coccinea), yellow nutsedge (Cyperus esculentus), pigweed (Amaranthus retroflexus), ragweed (common ragweed, Ambrosia elatior), soybean (Glycine max), barnyardgrass (Echinochloa crus-galli), oilseed rape (Brassica napus), waterhemp (common waterhemp, Amaranthus rudis), and velvetleaf (Abutilon theophrasti) were planted into a blend of loam soil and sand and treated preemergence with test chemicals formulated in a non-phytotoxic solvent mixture which included a surfactant. At the same time, plants selected from these crop and weed species and also chickweed (common chickweed, Stellaria media), kochia (Kochia scoparia), and wild oat (Avena fatua), were planted in pots containing Sunshine Redi-Earth® planting medium comprising spaghnum peat moss, vermiculite, starter nutrients and dolomitic limestone and treated with postemergence applications of test chemicals formulated in the same manner. Plants ranged in height from 2 to 18 cm (1- to 4-leaf stage) for postemergence treatments. Treated plants and controls were maintained in a greenhouse for 13 to 15 days, after which time all species were compared to controls and visually evaluated. Plant response ratings, summarized in Table C, are based on a scale of 0 to 100 where 0 is no effect and 100 is complete control. A dash (-) response means no test result.

[4] = test system: wild oat (Avena fatua); assay: Test C postemergence; details: scale 0 to 100, 0 is no effect, 100 is complete control
Description: as §2

[5] = test system: soybean (Glycine max); assay: Test C postemergence; details: scale 0 to 100, 0 is no effect, 100 is complete control
Description: as §2

[6] = test system: galium (catchweed bedstraw, Galium aparine); assay: Test A postemergence application; details: approx. 10 days
How it was run: (§3)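 Postemergence: seedlings 2–10 cm, 1–2 leaf stage, sprayed; preemergence: directed soil spray after sowing. Surfactant-containing non-phytotoxic solvent vehicle. Visual rating vs. controls at ~10 d, 0 = no effect, 100 = complete control.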

[7] = test system: kochia (Kochia scoparia); assay: Test A postemergence application; details: approx. 10 days
How it was run: as §3

[8] = test system: wheat (Triticum aestivum); assay: Test A postemergence application; details: approx. 10 days
How it was run: as §3

[9] = test system: blackgrass (Alopecurus myosuroides); assay: Test A postemergence application; details: approx. 10 days
How it was run: as §3

[10] = test system: Italian ryegrass (Lolium multiflorum); assay: Test A postemergence application; details: approx. 10 days
How it was run: as §3

[11] = test system: pigweed (Amaranthus retroflexus); assay: Test A postemergence application; details: approx. 10 days
How it was run: as §3

[12] = test system: ragweed (common ragweed, Ambrosia elatior); assay: Test A postemergence application; details: approx. 10 days
How it was run: as §3

[13] = test system: corn (Zea mays); assay: Test A postemergence application; details: approx. 10 days
How it was run: as §3

[14] = test system: giant foxtail (Setaria faberii); assay: Test A postemergence application; details: approx. 10 days
How it was run: as §3

[15] = test system: barnyardgrass (Echinochloa crus-galli); assay: Test A postemergence application; details: approx. 10 days
How it was run: as §3

[16] = test system: kochia (Kochia scoparia); assay: Test A preemergence, directed soil spray; details: approx. 10 days
How it was run: as §3

[17] = test system: Italian ryegrass (Lolium multiflorum); assay: Test A preemergence, directed soil spray; details: approx. 10 days
How it was run: as §3

[18] = test system: pigweed (Amaranthus retroflexus); assay: Test A preemergence, directed soil spray; details: approx. 10 days
How it was run: as §3

[19] = test system: ragweed (common ragweed, Ambrosia elatior); assay: Test A preemergence, directed soil spray; details: approx. 10 days
How it was run: as §3

[20] = test system: giant foxtail (Setaria faberii); assay: Test A preemergence, directed soil spray; details: approx. 10 days
How it was run: as §3

[21] = test system: barnyardgrass (Echinochloa crus-galli); assay: Test A preemergence, directed soil spray; details: approx. 10 days
How it was run: as §3

## O=c1cccc(Oc2ncc(Cl)cn2)n1-c1ccc(C(F)(F)F)cc1 [Compound 10]
[1]
  Plant response rating, Sedge, Umbrella: 90
[2]
  Plant response rating, Rice: 20
[3]; 16 g ai/ha
  Plant response rating, Lambsquarters: 65
[3]; 31 g ai/ha
  Plant response rating, Lambsquarters: 75
[3]; 62 g ai/ha
  Plant response rating, Lambsquarters: 75
[3]; 125 g ai/ha
  Plant response rating, Lambsquarters: 90
[4]; 16 g ai/ha
  Plant response rating, Oat, Wild: 0
[4]; 31 g ai/ha
  Plant response rating, Oat, Wild: 5
[4]; 62 g ai/ha
  Plant response rating, Oat, Wild: 15
[4]; 125 g ai/ha
  Plant response rating, Oat, Wild: 25
[5]; 16 g ai/ha
  Plant response rating, Soybean: 40
[5]; 31 g ai/ha
  Plant response rating, Soybean: 40
[5]; 62 g ai/ha
  Plant response rating, Soybean: 65
[5]; 125 g ai/ha
  Plant response rating, Soybean: 55
[6]; 31 g ai/ha
  Plant response rating (0 to 100 scale, 0 no effect, 100 complete control), Galium: 30
[6]; 125 g ai/ha
  Plant response rating (0 to 100 scale, 0 no effect, 100 complete control), Galium: 80
[7]; 31 g ai/ha
  Plant response rating (0 to 100 scale, 0 no effect, 100 complete control), Kochia: 80
[7]; 125 g ai/ha
  Plant response rating (0 to 100 scale, 0 no effect, 100 complete control), Kochia: 90
[8]; 31 g ai/ha
  Plant response rating (0 to 100 scale, 0 no effect, 100 complete control), Wheat: 0
[8]; 125 g ai/ha
  Plant response rating (0 to 100 scale, 0 no effect, 100 complete control), Wheat: 10
[9]; 31 g ai/ha
  Plant response rating (0 to 100 scale, 0 no effect, 100 complete control), Blackgrass: 30
[9]; 125 g ai/ha
  Plant response rating (0 to 100 scale, 0 no effect, 100 complete control), Blackgrass: 50
[10]; 31 g ai/ha
  Plant response rating (0 to 100 scale, 0 no effect, 100 complete control), Ryegrass, Italian: 0
[10]; 125 g ai/ha
  Plant response rating (0 to 100 scale, 0 no effect, 100 complete control), Ryegrass, Italian: 60
[11]; 31 g ai/ha
  Plant response rating (0 to 100 scale, 0 no effect, 100 complete control), Pigweed: 70
[11]; 125 g ai/ha
  Plant response rating (0 to 100 scale, 0 no effect, 100 complete control), Pigweed: 90
[12]; 31 g ai/ha
  Plant response rating (0 to 100 scale, 0 no effect, 100 complete control), Ragweed: 10
[12]; 125 g ai/ha
  Plant response rating (0 to 100 scale, 0 no effect, 100 complete control), Ragweed: 20
[13]; 31 g ai/ha
  Plant response rating (0 to 100 scale, 0 no effect, 100 complete control), Corn: 20
[13]; 125 g ai/ha
  Plant response rating (0 to 100 scale, 0 no effect, 100 complete control), Corn: 30
[14]; 31 g ai/ha
  Plant response rating (0 to 100 scale, 0 no effect, 100 complete control), Foxtail, Giant: 50
[14]; 125 g ai/ha
  Plant response rating (0 to 100 scale, 0 no effect, 100 complete control), Foxtail, Giant: 90
[15]; 31 g ai/ha
  Plant response rating (0 to 100 scale, 0 no effect, 100 complete control), Barnyardgrass: 40
[15]; 125 g ai/ha
  Plant response rating (0 to 100 scale, 0 no effect, 100 complete control), Barnyardgrass: 90
[16]; 31 g ai/ha
  Plant response rating (0 to 100 scale, 0 no effect, 100 complete control), Kochia: 30
[16]; 125 g ai/ha
  Plant response rating (0 to 100 scale, 0 no effect, 100 complete control), Kochia: 60
[17]; 31 g ai/ha
  Plant response rating (0 to 100 scale, 0 no effect, 100 complete control), Ryegrass, Italian: 10
[17]; 125 g ai/ha
  Plant response rating (0 to 100 scale, 0 no effect, 100 complete control), Ryegrass, Italian: 50
[18]; 31 g ai/ha
  Plant response rating (0 to 100 scale, 0 no effect, 100 complete control), Pigweed: 50
[18]; 125 g ai/ha
  Plant response rating (0 to 100 scale, 0 no effect, 100 complete control), Pigweed: 100
[19]; 31 g ai/ha
  Plant response rating (0 to 100 scale, 0 no effect, 100 complete control), Ragweed: 0
[19]; 125 g ai/ha
  Plant response rating (0 to 100 scale, 0 no effect, 100 complete control), Ragweed: 10
[20]; 31 g ai/ha
  Plant response rating (0 to 100 scale, 0 no effect, 100 complete control), Foxtail, Giant: 70
[20]; 125 g ai/ha
  Plant response rating (0 to 100 scale, 0 no effect, 100 complete control), Foxtail, Giant: 100
[21]; 31 g ai/ha
  Plant response rating (0 to 100 scale, 0 no effect, 100 complete control), Barnyardgrass: 50
[21]; 125 g ai/ha
  Plant response rating (0 to 100 scale, 0 no effect, 100 complete control), Barnyardgrass: 90

Reference: patent US9963442B2, “Pyridones as herbicides” (E I DU PONT DE NEMOURS AND COMPANY, priority 2014, dated 2018)
